Results: EPA's ToxValDB 9.5 (doi:10.2903/j.efsa.2008.152r)

Key:
Colinus virginianus = conditions: acute, oral, mortality
Aphidius rhopalosiphi = assay: LR50; higher = less toxic; conditions: not reported; mortality
Bibionidae = conditions: chronic/long-term; duration: 28 days
Canidae = conditions: chronic; duration: 1 years; oral; Dog Other; clinical chemistry
Pimephales promelas = conditions: chronic/long-term; duration: 28 days; growth
Apis mellifera = conditions: acute, mortality
Daphnia magna = conditions: chronic/long-term; duration: 21 days; reproduction

| SMILES | LC50 (Colinus virginianus; diet) [mg/kg] | LR50 (Aphidius rhopalosiphi) [g/ha] | NOEC (Bibionidae) [mg/L] | LD50 (Colinus virginianus) [mg/kg-day] | NOAEL (Canidae) [mg/kg-day] | LC50 (Tagia sp.; acute, duration: 14 days, mortality) [mg/kg] | NOEC (Tagia sp.; chronic/long-term, duration: 4 weeks) [mg/kg] | NOEC (Pimephales promelas) [mg/L] | LD50 (Rattus norvegicus; acute, mortality) [mg/kg-day] | NOAEL (Rattus norvegicus; chronic, duration: 2 years, oral, diet, organ weight) [mg/kg-day] | NOAEL (Rattus norvegicus; reproduction developmental, body weight) [mg/kg-day] | NOAEL (Rattus norvegicus; reproduction developmental, reproduction) [mg/kg-day] | LD50 (Apis mellifera; dermal) [µg/piece] | LD50 (Apis mellifera; oral, unspecified) [µg/piece] | NOEC (Anas platyrhynchos; reproductive) [mg/kg-day] | LC50 (Anas platyrhynchos; short-term, oral, feed, mortality) [mg/kg-day] | NOEC (Daphnia magna) [mg/L] |
| --- | --- | --- | --- | --- | --- | --- | --- | --- | --- | --- | --- | --- | --- | --- | --- | --- | --- |
| NC(Cc1ncn[nH]1)C(=O)O (configuration not stated) [1,2,4-Triazole-3-alanine] | > 5000 | – | – | – | – | – | – | – | – | – | – | – | – | – | – | – | – |
| FC(F)C(F)(F)OCC(Cn1cncn1)c1ccc(Cl)cc1Cl (configuration not stated) [Tetraconazole] | – | 125 | 4.45 | 132 | 2.95 | 71 | ≤ 8.2 | 0.3 | 1030 | 0.4 | 5 | 3.6 | 63 | > 130 | 1.6 | 55.5 | 0.19 |
